Laboratory results: ChEMBL document CHEMBL1921746, “Chemical constituents of the rhizomes of Hedychium coronarium and their inhibitory effect on the pro-inflammatory cytokines production LPS-stimulated in bone marrow-derived dendritic cells” (Bioorg Med Chem Lett, 2011)
Active and inactive are the calls of the source. The calls are words filed in the database; no cut-off is given here.

Columns and labels:
[1] = tested on: BMDC; experiment: Antiinflammatory activity in C57BL/6 mouse BMDC assessed as inhibition of LPS-stimulated IL-6 production up to 50 uM preincubated for 1 hr before LPS-stimulation measured after 16 hrs by ELISA; type: functional
[2] = tested on: BMDC; experiment: Antiinflammatory activity in C57BL/6 mouse BMDC assessed as inhibition of LPS-stimulated IL-12p40 production up to 50 uM preincubated for 1 hr before LPS-stimulation measured after 16 hrs by ELISA; type: functional
[3] = tested on: BMDC; experiment: Antiinflammatory activity in C57BL/6 mouse BMDC assessed as inhibition of LPS-stimulated TNF-alpha production up to 50 uM preincubated for 1 hr before LPS-stimulation measured after 16 hrs by ELISA; type: functional
[4] = Antiinflammatory activity in C57BL/6 mouse BMDC assessed as inhibition of LPS-stimulated TNF-alpha production preincubated for 1 hr before LPS-stimulation measured after 16 hrs by ELISA; type: functional
[5] = Antiinflammatory activity in C57BL/6 mouse BMDC assessed as inhibition of LPS-stimulated IL-6 production preincubated for 1 hr before LPS-stimulation measured after 16 hrs by ELISA; type: functional
[6] = Antiinflammatory activity in C57BL/6 mouse BMDC assessed as inhibition of LPS-stimulated IL-12p40 production preincubated for 1 hr before LPS-stimulation measured after 16 hrs by ELISA; type: functional
[7] = Cytotoxicity against C57BL/6 mouse BMDC assessed as reduction of cell viability by MTT assay

| SMILES | inhibition [1] | inhibition [2] | inhibition [3] | IC50 [4] | IC50 [5] | IC50 [6] | Activity [7] |
| --- | --- | --- | --- | --- | --- | --- | --- |
| CC[C@H](/C=C/[C@@H](C)[C@H]1CC[C@H]2[C@@H]3CC=C4C[C@@H](O)CC[C@]4(C)[C@H]3CC[C@]12C)C(C)C | inactive | inactive | inactive |  |  |  |  |
| CC1(C)CCC[C@]2(C)[C@H]3C/C=C(/C=O)CC(O)CC3=CC(=O)[C@@H]12 (some centres not stated) [CORONARIN H] |  |  |  | 26.8 µM | 8.93 µM | 8.02 µM |  |
| C=C1CC[C@H]2C(C)(C)CCC[C@]2(C)[C@H]1C/C=C1/CC(OC)OC1=O (some centres not stated) [CORONARIN D METHYL ETHER] |  |  |  |  |  |  | Toxic |
| C=C[C@@](C)(O)CC/C=C(\C)CCC=C(C)C | inactive | inactive | inactive |  |  |  |  |
| C=C1[C@@H](O)C[C@H]2C(C)(C)[C@@H](O)CC[C@]2(C)[C@H]1C/C=C1/COCC1O (some centres not stated) [CORONARIN I] |  |  |  |  |  |  | Toxic |
| C[S+]([O-])c1ccc(-c2nc(-c3ccc(F)cc3)c(-c3ccncc3)[nH]2)cc1 (configuration not stated) [SB-203580] |  |  |  | 7.24 µM | 3.53 µM | 5.02 µM |  |
| C=C1CC[C@H]2C(C)(C)CCC[C@]2(C)[C@H]1C/C=C1/CC(O)OC1=O (some centres not stated) [CORONARIN D] |  |  |  | 41.7 µM |  |  |  |
| C=C1[C@@H](O)C[C@H]2C(C)(C)CCC[C@]2(C)[C@H]1/C=C/C1=CC(=O)OC1O (some centres not stated) [HEDYFORRESTIN C] |  |  |  | 10.4 µM | 3.38 µM | 0.19 µM |  |
| CC[C@H](CC[C@@H](C)[C@H]1CC[C@H]2[C@@H]3CC=C4C[C@@H](O)CC[C@]4(C)[C@H]3CC[C@]12C)C(C)C | inactive | inactive | inactive |  |  |  |  |
| C=C1CC[C@H]2C(C)(C)CCC[C@]2(C)[C@H]1CCC1=CC(OC)OC1=O (some centres not stated) [CORONARIN G] |  |  |  | 12.6 µM | 7.57 µM | 6.6 µM |  |
| CC[C@H](CC[C@@H](C)[C@H]1CC[C@H]2[C@@H]3CC=C4C[C@@H](O[C@@H]5O[C@H](CO)[C@@H](O)[C@H](O)[C@H]5O)CC[C@]4(C)[C@H]3CC[C@]12C)C(C)C | inactive | inactive | inactive |  |  |  |  |
